Data set [1] deals with T1, islet amyloid polypeptide (IAPP) (Homo sapiens, UniProt P10997).
T1 construct: IAPP is a 37 residue neuropancreatic hormone peptide; purchased Anaspec (Fremont, Calif.)
T1 sequence (P10997 34-70 limits assumed): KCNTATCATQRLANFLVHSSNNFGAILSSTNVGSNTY
The data set can be described thus: ThT-based kinetic assay of IAPP fibrillation. The data set is classed as biochemical. The conditions noted are these: for inhibition of IAPP fibrillation (in words) / relative t50 of IAPP fibrillation versus control reaction: 15 μM IAPP, equimolar ratio; for inhibition of IAPP fibrillation (in words): FIG. 2C; for inhibition capacity towards IAPP fibrillation (in words): ThT assays under our conditions. From the text:
The aggregation kinetics of IAPP was probed using an exogenous reporter, Thioflavin T (ThT), which quantifies the amount of fibers in solution without perturbing the aggregation kinetics of IAPP (see Wolfe, L. S.; Calabrese, M. F.; Nath, A.; Blaho, D. V.; Miranker, A. D.; Xiong, Y. Proc. Natl. Acad. Sci. U.S.A. 2010, 107, 16863-16868; Levine, H. Protein Sci. 1993, 2, 404-410). […] The kinetics of IAPP fibrillation was quantified using the reaction midpoint, t50, which is the time required to reach 50% fluorescence in the fibrillation reaction (FIG. 8).
Kinetic assays were conducted on a FlexStation 3 Multi-Mode Microplate reader from Molecular Devices (Sunnyvale, Calif.). Experiments were conducted in triplicate in a 96-well plate with a final volume of 200 μL per well. Every measurement was an average of 50 readings. The aggregation of IAPP was initiated by its addition from a stock solution (1 mM in DMSO) to phosphate buffer. The stoichiometry ratio for ThT to IAPP was 0.5:1. Peptide aggregation was monitored by ThT fluorescence (λex=445 nm and λem=485 nm). The blank sample contained all the components of the peptide samples except peptide. The sample data were processed by subtracting the blank and renormalizing the fluorescence intensity by setting the maximum value to 1.
Kinetic assays in the presence of the compounds of the invention were conducted under the same conditions. Small molecules were added from a stock solution (1 mM or 10 mM in DMSO) to keep the final concentration of DMSO less than 1.0% (v/v). Small molecules were added to the wells with ThT and buffer and mixed gently with a pipette before adding IAPP. To keep the conditions identical, an equal amount of DMSO was added to the wells with IAPP only reactions. For the aggregation kinetics of Aβ42, the peptide was dissolved in 1N NaOH (0.5-1 mM) and vortexed for 2 min. to ensure the complete solubility. The aggregation of 3 μM Aβ42 was initiated by addition of peptide from a stock solution (in 1 N NaOH, 0.5-1 mM) to phosphate buffer.
Kinetic profiles were processed using Origin (version 9.1). Kinetic curves were fit using the built-in sigmoidal fit. Each run was fit independently to extract the t50 (time required to reach 50% of the maximum fluorescence intensity). Error bars represent standard deviations from the mean of at least three independent experiments.
The membrane model system selected for the amyloid assays is a mixture of DOPG (dioleoylphosphatidylglycerol) and DOPC (dioleoylphosphatidylcholine) at 3:7 molar ratio, which mimics physiological conditions (Ono, K.; Condron, M. M.; Teplow, D. B. Proc. Natl. Acad. Sci. U.S.A. 2009, 106, 14745-14750). The lipid catalyzed aggregation of IAPP was initiated by adding freshly prepared 15 μM IAPP (1 mM stock solution in DMSO) to the phosphate buffer (50 mM NaPi, 150 mM KCl, pH 7.4) containing 15 μM ThT and 750 μM of unilamellar liposomes (LUVs, DOPG:DOPC, 3:7, d=100 nm).

The target of data set [2] is T2, IAPP-induced lipid membrane leakage (Homo sapiens, UniProt P10997).
T2 construct: IAPP is a 37 residue neuropancreatic hormone peptide; purchased Anaspec (Fremont, Calif.)
T2 sequence (P10997 34-70 limits assumed): T1 sequence (P10997 34-70 limits assumed)
As to the kind of experiment: Fluorescein-based liposome leakage assay. The settings on record: 4 μM IAPP, equimolar ratio. The format is biochemical. From the text: Colocalization of IAPP at the mitochondrial membrane and the subsequent membrane poration is considered to be one of the potential contributors to β-cell toxicity. Therefore, a liposome leakage assay could serve as a surrogate marker for IAPP induced cytotoxicity (see Last, N. B.; Miranker, A. D. Proc. Natl. Acad. Sci. U.S.A. 2013, 110, 6382-6387; and Last, N. B.; Rhoades, E.; Miranker, A. D. Proc. Natl. Acad. Sci. U.S.A. 2011, 108, 9460-9465). A previously reported fluorescein-based liposome leakage assay was employed to test the effect of ADH-101 on membrane associated α-helical intermediates of IAPP. Briefly, fluorescein-dextran conjugate (MW=70 kDa) was encapsulated in unilamaller extruded lipid vesicles (DOPG:DOPC, 3:7, d=100 nm). The size of fluorescein-dextran conjugate allows it to stay inside the lipid vesicles during IAPP mediated membrane poration. The leakage kinetics was probed by the quenching of fluorescence using a fluorescent quencher, DPX (p-xylene-bis-pyridinium […]). The kinetic profiles of leakage are single exponential with a decrease in fluorescence as a function of time. The leakage reaction was initiated by introducing 200 μM liposome into a solution of 4 μM IAPP and 6 mM of DPX. The introduction of the excess ionic concentration by DPX was counterbalanced by adjusting the buffer concentration. The kinetics of the leakage mediated by IAPP yielded a single exponential profile with a leakage rate of 7.3±1.1×10^−3 s^−1 (FIG. 5A).
The kinetics of liposome leakage induced by IAPP was monitored on QuantaMaster C-61 fluorescence spectrometer (Photon Technology International, Edison, N.J.) at 25° C. […] The stock solution of IAPP used in the measurements was kept in water at a concentration of 1 mM. The stock solution of water soluble quencher, DPX (p-xylene-bis-pyridinium bromide) was prepared in buffer (100 mM KCl, 50 mM NaPi, pH 7.4) at a concentration of 100 mM. The small molecules used in the leakage assay were dissolved in DMSO with a concentration range of 10-20 mM. The final concentration of dye encapsulating liposome, DPX, human IAPP, and small molecules were 200, 6000, 4, and 4 μM respectively. The final buffer concentration was corrected using higher concentration of buffer to keep the osmolality balanced. […] To determine the leakage rate constant, first the fluorescence was normalized and corrected by subtracting it from normalized fluorescence of control reaction. The corrected fluorescence was fit using equation given below (using Origin 9.1). All the experiments were performed in triplicate and the error values presented are standard deviations. a*exp(−b*x)+c (2) a=amplitude from 100% unleaked to 0% leaked c=final fraction of unleaked liposome y=change in fluorescence b=leakage rate constant

The next data set in a line: Partition coefficient. The data set is classed as physicochemical.
The mark [3] stands for this setting: lipid catalyzed (750 μM LUVs, DOPG:DOPC 3:7).

On to `CCOC(=O)c1cc([N+](=O)[O-])cn1CCC(=O)O` [ADH-117], for which, in data set [1], the “inhibition of IAPP fibrillation (in words)” value is reported as “ineffective”.

For the molecule `COC(=O)c1ccc(NC(=O)c2ccc(NC(=O)c3ccc([N+](=O)[O-])c(OCC(=O)O)n3)c(OCC(C)C)n2)c(OCC(C)C)n1` [ADH-201, reference compound], the “relative t50 of IAPP fibrillation versus control reaction” value (“relative t50” below) in data set [1] (setting [3]) stood at 1.4 fold.

In the case of `CCOC(=O)c1cc(NC(=O)c2cc(NC(=O)c3cc([N+](=O)[O-])cn3CC(C)C)cn2CC(C)C)cn1CC(C)C` [ADH-105], the “relative t50” value in data set [1] (de novo / lipid free) was 2.6 fold; in data set [1] (setting [3]), 1.5 fold.

`O=C(O[C@@H]1Cc2c(O)cc(O)cc2O[C@@H]1c1cc(O)c(O)c(O)c1)c1cc(O)c(O)c(O)c1` [EGCG, reference compound]: the “inhibition capacity towards IAPP fibrillation (in words)” value in data set [1] is given as “moderate inhibition capacity”. Also, the “effect on IAPP induced liposome leakage (in words)” value in data set [2] is reported as “unable to effect”.

On to `CCOC(=O)c1cc([N+](=O)[O-])cn1CC(C)C` [ADH-113], for which the “inhibition of IAPP fibrillation (in words)” value in data set [1] is reported as “ineffective”.

A word on the logP: it is the decadic logarithm of the partition coefficient of the neutral form, usually between octanol and water. In the case of `COC(=O)c1ccc(NC(=O)c2ccc(NC(=O)c3ccc([N+](=O)[O-])c(OCC(=O)O)n3)c(OCC(C)C)n2)c(OCC(=O)O)n1` [ADM-11, reference compound], in data set [1] (setting [3]), the “relative t50” value is 1.9 fold. The molecule also displayed a logP in the data set “Partition coefficient” of -0.8.

As to `CCOC(=O)c1cc(NC(=O)c2cc(NC(=O)c3cc([N+](=O)[O-])cn3CCCc3ccccc3)cn2CC(C)C)cn1CCC(=O)O` [ADH-120], the “antagonist of oligomerization, fibrillation, and/or aggregation of IAPP (in words)” value in data set [1] was “effective antagonist”.

As for `COc1cc(/C=C/C(=O)CC(=O)/C=C/c2ccc(O)c(OC)c2)ccc1O` [Curcumin], the “inhibition capacity towards IAPP fibrillation (in words)” value in data set [1] is “moderate inhibition capacity”.

Regarding `CC1=C/C(=C(\c2ccc(N)c(S(=O)(=O)[O-])c2)c2ccc(N)c(S(=O)(=O)O)c2)C=C(S(=O)(=O)[O-])C1=N.[Na+].[Na+]` [AF, Acid fuchsin, reference compound], the “inhibition capacity towards IAPP fibrillation (in words)” value in data set [1] is reported as “moderate inhibition capacity”. Also, the “effect on IAPP induced liposome leakage (in words)” value in data set [2] was “unable to effect”.

The record behind these values is patent US11124479B2, “Oligopyrroles as antagonists of islet amyloid polypeptide oligomerization” (New York University, priority 2017, dated 2021).
